According to patent US10968183B2, “Small molecule FIEL1 inhibitor in inflammatory and fibrotic lung injury” (UNIVERSITY OF PITTSBURGH—OF THE COMMONWEALTH SYSTEM OF …, priority 2015, dated 2021):

What was measured:
[1] = system: KIAA0317 and PIAS4 mRNA; test: PIAS4 and KIAA0317 mRNA analysis (RT-qPCR); type: cell-based; settings: treatment for 18 h; FIG. 15G
Description: FIG. 15A. Diagram of the BC-1485 synthesis process. FIGS. 15B-15C. Docking studies of the lead compound, BC-1485, interacting with the FIEL1-HECT domain. FIG. 15D. MRC5 cells were treated with the compound at various doses; cells were also co-treated with TGFβ at 2 ng/ml. 18 h later, cells were collected and assayed for α-SMA expression. FIG. 15E. MRC5 cells were seeded in 35 mm glass bottom dishes before co-treatment with TGFβ at 2 ng/ml and BC-1480 or BC1485 at 5μM. FIG. 15F. PIAS4 protein half-life determination after BC-1480 or BC1485 treatment at 5μM for 18 h. FIG. 15G. PIAS4 and KIAA0317 mRNA analysis after BC1485 treatment for 18 h.
Total RNA was isolated and reverse transcription was performed followed by real-time quantitative PCR with SYBR Green qPCR mixture as described in Butler et al. J. Biol. Chem. 2010, […]: 6246-6258. All mutant PIAS4 and KIAA0317 plasmid constructs were generated using PCR-based approaches and appropriate primers and subcloned into a pcDNA3.1D/V5-HIS vector.

[2] = system: DSS induced acute colonic inflammation in C57BL6 mice; test: Dextran sulfate sodium induced acute colonic inflammation in mice; type: in vivo; settings: 2.5% DSS in water up to 7 days; drinking water 30 ug/ml, ~5 mg/kg/d
Description: C57BL6 mice were fed with water ad lib containing 2.5% dextran sulfate sodium (DSS) for up to 7 days. Mice were treated with either vehicle (control) or BC-1261 (administered into drinking water at 30 ug/ml, ˜5 mg/kg/d dosing). Colonic tissues were also analysed for TNFα, IL1 and IL6 shown in FIGS. 20E H&E staining was performed on colonic sections. The data in FIG. 20F represent n=6 mice/group, *P<0.05 versus DSS and **P<0.05 versus control. […] FIG. 20G provides pictures of the tissues at interest.
C57BL6 mice were fed with water ad lib containing 2.5% dextran sulfate sodium (DSS) for up to 7 days. Mice were treated with either vehicle (control) or BC-1261 (administered into drinking water at 30 ug/ml, ˜5 mg/kg/d dosing). Mice were then euthanized, the length of the colon and weight of the spleen were measured and graphed, shown in FIG. 20 B-D. Colonic tissues were also analysed for TNFα, IL1 and IL6 shown in FIG. 20E H&E staining was performed on colonic sections. The data in FIG. 20F represent n=6 mice/group, *P<0.05 versus DSS and **P<0.05 versus control.

CC(NC(=O)c1ccc(NS(=O)(=O)c2ccc3[nH]c(=O)[nH]c3c2)cc1)C(=O)N(C)C (stereo not drawn) [BC-1485]
KIAA0317 mRNA levels [1]: did not significantly alter
PIAS4 mRNA levels [1]: did not significantly alter
DSS induced acute colonic inflammation [2]: effectively reduces
